The results in this text go back to ChEMBL document CHEMBL2016506, “Glucose-aspirin: Synthesis and in vitro anti-cancer activity studies” (Bioorg Med Chem Lett, 2012).

In series [1] the test system is SK-BR-3. The series can be described thus: Cytotoxicity against human SKBR3 cells after 24 hrs by alamar blue assay. The following applies: SK-BR-3, 24 h. The series is classed as functional, cell-based.
Series [2] concerns WI-38. The series can be described thus: Cytotoxicity against human WI38 cells after 24 hrs by alamar blue assay. Type of series: cell-based. The following applies: WI-38, 24 h.
The test system of series [3] is PANC-1. The series is described as follows: Cytotoxicity against human PANC1 cells after 24 hrs by alamar blue assay. The series is classed as functional, cell-based. The following applies: PANC-1, 24 h.
For series [4], the system named is PC-3. The series can be described thus: Cytotoxicity against human PC3 cells after 24 hrs by alamar blue assay. The series is classed as functional, cell-based. The following applies: PC-3, 24 h.
The test system of series [5] is SK-BR-3. The series can be described thus: Cytotoxicity against human SKBR3 cells after 48 hrs by alamar blue assay. Type of series: functional, cell-based. The following applies: SK-BR-3, 48 h.
In series [6] the test system is WI-38. The series can be described thus: Cytotoxicity against human WI38 cells after 48 hrs by alamar blue assay. Particulars: WI-38, 48 h. Type of series: cell-based.
In series [7] the test system is PANC-1. The series is described as follows: Cytotoxicity against human PANC1 cells after 48 hrs by alamar blue assay. Type of series: functional, cell-based. The following applies: PANC-1, 48 h.
Series [8] deals with PC-3. The series can be described thus: Cytotoxicity against human PC3 cells after 48 hrs by alamar blue assay. Type of series: functional, cell-based. The following applies: PC-3, 48 h.
For series [9], the system named is SK-BR-3. The series is described as follows: Ratio of IC50 for aspirin to compound IC50 for human SKBR3 cells. Type of series: functional.
Series [10] deals with PANC-1. The series is described as follows: Ratio of IC50 for aspirin to compound IC50 for human PANC1 cells. Type of series: functional.
Series [11] concerns PC-3. The series is described as follows: Ratio of IC50 for aspirin to compound IC50 for human PC3 cells. The series is classed as functional.
For series [12], the system named is SK-BR-3. The series can be described thus: Growth inhibition of human SKBR3 cells at 2 x 10 '-3 M to 1.5 x 10^-4 M after 24 hrs by alamar blue assay. Type of series: functional.
For series [13], the system named is PANC-1. The series is described as follows: Growth inhibition of human PANC1 cells at 2 x 10 '-3 M to 1.5 x 10^-4 M after 24 hrs by alamar blue assay. Type of series: functional.
The subject of series [14] is PC-3. The series is described as follows: Growth inhibition of human PC3 cells at 2 x 10 '-3 M to 1.5 x 10^-4 M after 24 hrs by alamar blue assay. Type of series: functional.
The subject of series [15] is WI-38. The series is described as follows: Cytotoxicity against human WI38 cells at 300 uM after 24 hrs by alamar blue assay. The series is classed as cell-based. The following applies: wi-38, 24 h.
Series [16] deals with SK-BR-3. The series is described as follows: Growth inhibition of human SKBR3 cells at 300 uM after 48 hrs by alamar blue assay. Type of series: functional.
Series [17] concerns SK-BR-3. The series is described as follows: Growth inhibition of human SKBR3 cells at 150 uM after 48 hrs by alamar blue assay. Particulars: SK-BR-3, 48 h, read-out: GI. The series is classed as functional.
Series [18] deals with PANC-1. The series can be described thus: Growth inhibition of human PANC1 cells at 300 uM after 48 hrs by alamar blue assay. Type of series: functional.
Series [19] has as its system PANC-1. The series can be described thus: Growth inhibition of human PANC1 cells at 150 uM after 48 hrs by alamar blue assay. The series is classed as functional. Particulars: PANC-1, 48 h, read-out: GI.
Series [20] deals with PC-3. The series is described as follows: Growth inhibition of human PC3 cells at 300 uM after 48 hrs by alamar blue assay. The series is classed as functional.
The test system of series [21] is PC-3. The series can be described thus: Growth inhibition of human PC3 cells at 150 uM after 48 hrs by alamar blue assay. The series is classed as functional. The following applies: PC-3, 48 h, read-out: GI.
The subject of series [22] is WI-38. The series can be described thus: Growth stimulation of human WI38 cells at 2 x 10^-3 to 3 x 10^-4 M after 24 to 48 hrs by alamar blue assay. Type of series: functional, cell-based.
The test system of series [23] is PC-3. The series is described as follows: Growth stimulation of human PC3 cells at 2 x 10^-3 M after 24 to 48 hrs by alamar blue assay. Type of series: functional, cell-based.
The nature of series [24]: Drug metabolism in human serum assessed as compound hydrolysis after 3 hrs by HPLC analysis. The series is classed as ADME, cell-free. Particulars: read-out: Drug metabolism.
Series [25] can be described thus: Aqueous solubility of the compound in 300 ml water. Type of series: physicochemical. The following applies: buffer.
The test system of series [26] is SK-BR-3. The series is described as follows: Growth inhibition of human SKBR3 cells at 300 uM after 24 hrs by alamar blue assay. Type of series: functional. The following applies: SK-BR-3, 24 h, read-out: GI.
The test system of series [27] is PANC-1. The series can be described thus: Growth inhibition of human PANC1 cells at 300 uM after 24 hrs by alamar blue assay. Particulars: PANC-1, 24 h, read-out: GI. The series is classed as functional.
The test system of series [28] is PC-3. The series is described as follows: Growth inhibition of human PC3 cells at 300 uM after 24 hrs by alamar blue assay. The following applies: PC-3, 24 h, read-out: GI. The series is classed as functional.
In series [29] the test system is WI-38. The series is described as follows: Cytotoxicity against human WI38 cells at 2 x 10^-3 to 3 x 10^-4 M after 24 hrs by alamar blue assay. Type of series: cell-based. Particulars: wi-38, 24 h.
The test system of series [30] is WI-38. The series is described as follows: Cytotoxicity against human WI38 cells at 2 x 10^-3 to 3 x 10^-4 M after 48 hrs by alamar blue assay. Type of series: cell-based. Particulars: wi-38, 48 h.
Series [31] is described as follows: Aqueous solubility of the compound in 43 ml water. Type of series: physicochemical. The following applies: buffer.
Series [32] concerns PANC-1. The series is described as follows: Growth inhibition of human PANC1 cells at 2 x 10^-3 to 1.5 x 10^-4 M after 48 hrs by alamar blue assay. The series is classed as functional, cell-based.
Series [33] deals with SK-BR-3. The series can be described thus: Growth inhibition of human SKBR3 cells at 2 x 10^-3 to 1.5 x 10^-4 M after 48 hrs by alamar blue assay. The series is classed as functional, cell-based.
For series [34], the system named is PC-3. The series can be described thus: Growth inhibition of human PC3 cells at 2 x 10^-3 to 1.5 x 10^-4 M after 48 hrs by alamar blue assay. Type of series: functional, cell-based.

Calls of active or inactive are those of the source. The calls are words filed in the database; no cut-off is given here.

`CC(=O)Oc1ccccc1C(=O)O[C@@H]1[C@@H](O)[C@@H](O)O[C@H](CO)[C@H]1O`: the IC50 in the series with SK-BR-3 [1] is 201 µM; in the series on WI-38 [2], 376 µM; with PANC-1 [3] it was 399 µM; in the series with PC-3 [4], 83.2 µM; with SK-BR-3 [5], 87.8 µM; in the series with WI-38 [6], 310 µM. The IC50 in the series on PANC-1 [7] amounted to 90.5 µM; in the series with PC-3 [8], 81.4 µM. The “Ratio IC50” value in the series with SK-BR-3 [9], in the series on PANC-1 [10] and in the series with PC-3 [11] was 8 in each case. In addition, the “growth inhibition (GI)” value in the series with SK-BR-3 [12], in the series with PANC-1 [13] and with PC-3 [14] was 20% each time. Moreover, in the series with WI-38 [15], the Activity entry is “Non-toxic”. The inhibition of growth at 300 µM was found to be 90% with SK-BR-3 [16] (SK-BR-3, 48 h, read-out: GI); 70% in the series on PANC-1 [18] (PANC-1, 48 h, read-out: GI); 85% in the series with PC-3 [20] (PC-3, 48 h, read-out: GI); 60% in the series with SK-BR-3 [26]; 60% in the series with PANC-1 [27]; 60% in the series on PC-3 [28]. The inhibition of growth at 150 µM stood at 60% with SK-BR-3 [17], 60% in the series on PANC-1 [19] and 65% in the series on PC-3 [21]. For the same compound, the outcome in the series with WI-38 [22] and in the series with PC-3 [23] was Active. Moreover, the metabolised at 3 h in series [24] is 27%. Further, the solubility entry in [25] is “soluble”.

As to `CC(=O)Oc1ccccc1C(=O)O` [ASPIRIN], the IC50 came out at 771 µM with PC-3 [4] and 782 µM with PC-3 [8]. In addition, the “growth inhibition (GI)” value in the series on SK-BR-3 [12], with PANC-1 [13], in the series with PC-3 [14], with PANC-1 [32], in the series with SK-BR-3 [33] and with PC-3 [34] was “inactive” throughout. For the same compound, the “growth inhibition (GI)” value in the series on SK-BR-3 [16], in the series on PANC-1 [18] and in the series on PC-3 [20] was “Active” in each case. The Activity result with WI-38 [29] and in the series on WI-38 [30] was “Toxic” throughout. For the same compound, the metabolised at 3 h in [24] stood at 47%. The solubility entry in series [31] was “soluble”.
